From patent US11866516B2, “Isolated peptide, anti-cancer medicinal composition including the same and method of specifically reducing or inhibiting activities of cancer cells using the same” (National Sun Yat-Sen Univesity, priority 2020, dated 2024)
No end group written: not given here.

Key:
recombinant ATG4A = target: T1, recombinant ATG4A (Homo sapiens, UniProt Q8WYN0); assay: ATG4 reporter GBRL2-PLA2 assay with recombinant ATG4A; type: biochemical; settings: for inhibitory effect on ATG4A proteolytic activity: recombinant ATG4A 5 nM, 100 nM GBRL2-PLA2, EDTA as positive control
T1 sequence (Q8WYN0 1-398): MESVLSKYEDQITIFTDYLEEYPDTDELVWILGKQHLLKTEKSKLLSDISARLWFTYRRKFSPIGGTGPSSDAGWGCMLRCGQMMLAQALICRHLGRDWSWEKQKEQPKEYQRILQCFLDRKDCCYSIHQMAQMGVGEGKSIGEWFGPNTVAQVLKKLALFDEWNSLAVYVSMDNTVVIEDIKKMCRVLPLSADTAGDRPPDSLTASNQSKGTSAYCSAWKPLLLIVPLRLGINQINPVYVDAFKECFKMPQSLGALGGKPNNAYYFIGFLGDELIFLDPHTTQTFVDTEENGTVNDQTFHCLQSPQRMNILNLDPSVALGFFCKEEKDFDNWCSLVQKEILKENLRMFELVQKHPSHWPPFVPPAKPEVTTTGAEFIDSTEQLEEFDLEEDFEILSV
Protocol: (§1) FIGS. 2A to 2C illustrate the inhibitory effects of GBRL2-derived peptides on ATG4 proteolytic activity according to several embodiments of the present invention. FIGS. 2A and 2B illustrate three α-helical peptides (H1, H2 and H3) derived from GBRL2, which were 2-fold serial titrated and mixed with recombinant ATG4A (5 nM) (FIG. 2A) or recombinant ATG4B (0.1 nM) (FIG. 2B) in the presence of 100 nM reporter GBRL2-PLA2, a general substrate for ATG4 members, to evaluate the inhibitory effect of peptides on ATG4A and ATG4B. The IC50 of peptides on ATG4B and ATG4A was analyzed by Prism 5.0. FIG. 2C illustrates the inhibitory activity of EDTA on proteolysis of ATG4 as a positive control in the upper panel. In the lower panel of FIG. 2C, the H2 peptide was further counter assayed with 0.5 nM caspase-3 and 100 μM DEVD-AFC to validate its specificity.
(§2) The reporter assay was modified from a previous report. Briefly, recombinant ATG4A or ATG4B was mixed with 100 nM GBRL2-PLA2 fusion protein in 20 μL PLA2 reaction buffer containing 20 mM Tris-HCl, pH 8.0, 2 mM CaCl2) and 1 mM DTT, and 20 μM 2-(6-(7-nitrobenz-2-oxa-1,3-diazol-4-yl)amino)hexanoyl-1-hexadecanoyl-sn-glycero-3-phosphocholine (NBD-C6-HPC) (Invitrogen, N-3786). Fluorescence intensity was measured within 30-60 minutes using Fluoroskan Ascent FL Reader (Thermo Fisher Scientific) at room temperature with excitation and emission wavelength of 485 nm and 530 nm, respectively. The IC50 of peptides on GBRL2-PLA2 was determined using nonlinear regression fitting of a series of progress curves.

ATG4B [1] = target: T2, ATG4B (Homo sapiens, UniProt Q9Y4P1); assay: ATG4 reporter GBRL2-PLA2 assay with recombinant ATG4B; type: biochemical; settings: for inhibitory effect on ATG4B proteolytic activity: recombinant ATG4B 0.1 nM, 100 nM GBRL2-PLA2, EDTA as positive control
T2 sequence (Q9Y4P1 1-393): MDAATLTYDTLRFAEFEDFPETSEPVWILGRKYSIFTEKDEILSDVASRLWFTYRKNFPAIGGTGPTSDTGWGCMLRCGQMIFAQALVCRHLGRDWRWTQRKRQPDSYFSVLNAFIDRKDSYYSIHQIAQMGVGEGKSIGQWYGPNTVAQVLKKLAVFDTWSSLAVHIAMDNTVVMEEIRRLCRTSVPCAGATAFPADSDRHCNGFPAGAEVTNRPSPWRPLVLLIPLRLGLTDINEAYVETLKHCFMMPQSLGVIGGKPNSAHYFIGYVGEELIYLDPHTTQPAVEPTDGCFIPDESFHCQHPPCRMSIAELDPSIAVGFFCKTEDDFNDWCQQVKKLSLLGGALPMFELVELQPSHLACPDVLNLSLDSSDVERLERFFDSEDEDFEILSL
Protocol: as §1, §2

HCT116 cells [2] = assay: cell viability, HCT116 cells; type: cell-based, human; settings: data not shown
Protocol: (§3) Since ATG4 might be required for cancer cell viability and metastatic characteristics, such as migration and invasion, the H4 cells and HCT116 cells were treated with peptides to determine the short- and long-term effects of peptide on cancer cells (FIGS. 4A to 4B).

HCT116 cells [3] = assay: propidium iodide (PI) uptake, HCT116 cells; type: cell-based, human; settings: data not shown
Protocol: as §3

[4] = test system: human glioblastoma H4 cells; assay: cell migration assay, H4 cells; type: cell-based; settings: TAT-GBRL2 at higher dose (20 μM), data not shown
Protocol: (§4) Besides the role of ATG4 in cancer cell survival, ATG4 plays a crucial role in cancer metastasis. Human glioblastoma H4 cells and colorectal cancer HCT116 cells were treated with the peptides for the cell migration assay.

H4 cells [5] = assay: propidium iodide (PI) uptake, H4 cells; type: cell-based, human; settings: data not shown
Protocol: as §3

[6] = test system: colorectal cancer HCT116 cells; assay: cell migration assay, HCT116 cells; type: cell-based, human; settings: TAT-GBRL2 at higher dose (20 μM), data not shown
Protocol: as §4

H4 cells [7] = assay: cell viability, H4 cells; type: cell-based, human; settings: data not shown
Protocol: as §3

ATG4B [8] = target: T2, ATG4B; assay: ATG4B cleavage of chimeric GBRL2 substrate (N-terminal C-myc tag, C-terminal S-tag); type: biochemical
Source text: FIGS. 3A to 3C illustrate the effects of peptides on cellular ATG4 proteolysis and autophagic flux according to several embodiments of the present invention. FIG. 3A depicts H2 peptides derived from different ATG4 substrates, including MAP1LC3B, MAP1LC3C and GBR, GBRL2 were mixed with chimeric GBRL2 containing N-terminal C-myc tag and C-terminal S-tag. The S-tag GBRL2 in the upper panel and ratios of non-cleaved/cleaved Myc-tag GBRL2 in the lower panel are used to evaluate the inhibitory effects of the H2 peptides. FIG. 3B depicts human glioblastoma H4 cells and colorectal cancer HCT116 cells both treated with 10 μM GBRL2 H2 peptide alone (orange) or TAT peptide alone (red) or GBRL2 H2 peptide conjugated with TAT peptide (green) for 6 hours and analyzed with flow cytometer. […] The luciferase activity is measured to determine the inhibitory effects on cellular ATG4 proteolysis.
Further, H2 helical peptides from different ATG4 substrates were tested for ATG4B activity with GABARAL2 chimeric substrates, which contained N-terminal C-myc tag and C-terminal S-tag (FIG. 3A). Compared to the controls, the remaining S-tag and the ratio of full length C-myc tagged GBRL2/cleaved C-myc tagged GBRL2 levels were quantified to determine the inhibitory effects of peptides on ATG4B proteolytic activity toward GBRL2. […]

HCT116 cells [9] = assay: clonogenic assay, HCT116 cells; type: cell-based, human; settings: peptide 5 μM, long-term treatment
Protocol: (§5) FIGS. 4A and 4B depict the cytotoxic effects of peptide (5 μM) in H4 cells (FIG. 4A) and HCT116 cells (FIG. 4B) further confirmed by clonogenic assay according to several embodiments of the present invention.
as §3

caspase-3 = target: T3, caspase-3 (Homo sapiens, UniProt P42574); assay: caspase-3 counter assay with DEVD-AFC; type: biochemical; settings: 0.5 nM caspase-3, 100 μM DEVD-AFC
T3 sequence (P42574 29-175 limits assumed): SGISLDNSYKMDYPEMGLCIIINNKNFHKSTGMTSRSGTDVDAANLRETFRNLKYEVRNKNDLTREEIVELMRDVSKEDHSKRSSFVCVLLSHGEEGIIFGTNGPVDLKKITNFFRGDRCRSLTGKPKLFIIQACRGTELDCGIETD
T3 sequence (P42574 176-277 limits assumed): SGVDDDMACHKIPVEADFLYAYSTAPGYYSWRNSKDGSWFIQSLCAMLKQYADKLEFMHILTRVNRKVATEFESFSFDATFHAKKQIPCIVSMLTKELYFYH
Protocol: as §1

H4 cells [10] = assay: clonogenic assay, H4 cells; type: cell-based, human; settings: peptide 5 μM, long-term treatment
Protocol: as §5, §3

HCT116 cells [11] = assay: invasion through Matrigel-coated Transwell filters; type: cell-based, human
Source text: FIGS. 5A to 5B illustrate the effects of GBRL2 peptides on cancer cell migration and invasion according to several embodiments of the present invention. FIG. 5A depicts the invasion of HCT116 cells examined with Matrigel-coated Transwell filters in the presence or absence of peptides, and the cell invasion results are quantified with ImageJ software. FIG. 5B depicts the quantified results for invasion expressed as the mean±SEM. *p<0.05; **p<0.01.
as §4

cellular ATG4 = assay: ATG4 cleavable luciferase assay in cells; type: cell-based, human; settings: HCT116 cells expressing ATG4 cleavable luciferase, 6 hours, ATG4B silencer as positive control
Source text: FIGS. 3A to 3C illustrate the effects of peptides on cellular ATG4 proteolysis and autophagic flux according to several embodiments of the present invention. FIG. 3A depicts H2 peptides derived from different ATG4 substrates, including MAP1LC3B, MAP1LC3C and GBR, GBRL2 were mixed with chimeric GBRL2 containing N-terminal C-myc tag and C-terminal S-tag. The S-tag GBRL2 in the upper panel and ratios of non-cleaved/cleaved Myc-tag GBRL2 in the lower panel are used to evaluate the inhibitory effects of the H2 peptides. FIG. 3B depicts human glioblastoma H4 cells and colorectal cancer HCT116 cells both treated with 10 μM GBRL2 H2 peptide alone (orange) or TAT peptide alone (red) or GBRL2 H2 peptide conjugated with TAT peptide (green) for 6 hours and analyzed with flow cytometer. FIG. 3C depicts the HCT116 cells expressing ATG4 cleavable luciferase treated with GBRL2 H2 peptide for 6 hours. The luciferase activity is measured to determine the inhibitory effects on cellular ATG4 proteolysis.
The plasmid MAP1LC3 wt-Luc or MAP1LC3 G120A-Luc (as a normalization control) was transfected into HEK293T (2000 cells/40 μL) seeded in 384-well white plates for overnight. The cells were treated with ATG4 inhibitors for 8 hours or 16 hours, followed by adding 200 μM D-luciferin (Promega) into each well to monitor the luciferase activity to reflect ATG4 activity in cells. […]

inhibitory effect on ATG4A proteolytic activity (recombinant ATG4A)	inhibitory effect on ATG4B proteolytic activity (ATG4B [1])	IC50 on ATG4A, rank among H1, H2, H3 (recombinant ATG4A; GBRL2-PLA2 reporter assay)	relative strength of inhibition on ATG4B among H2 peptides (ATG4B [8]; compared with H2 peptides of other ATG4 substrates)	effect on activity of caspase-3 (caspase-3)	IC50 on ATG4B, rank among H1, H2, H3 (ATG4B [1]; GBRL2-PLA2 reporter assay)	Substance	cell viability (HCT116 cells [2])	PI positive proportion (HCT116 cells [3])	cell migration [4]	PI positive proportion (H4 cells [5])	cell migration [6]	cell viability (H4 cells [7])	inhibition of ATG4B cleavage activity toward GBRL2 (ATG4B [8]; remaining S-tag and ratio full length/cleaved C-myc tagged GBRL2)	colony formation (HCT116 cells [9])	colony formation (H4 cells [10])	invaded HCT116 cells (HCT116 cells [11])	cellular luciferase activity (cellular ATG4 proteolysis) (cellular ATG4)
showed inhibitory effects	showed inhibitory effects					H1: α-helical peptide derived from GBRL2, LEHRCVESAKIRAK, SEQ ID NO:11 (Ac-LEHRCVESAKIRAK-NH2)											
showed inhibitory effects	showed inhibitory effects					H3: α-helical peptide derived from GBRL2, MGQLYEKE, SEQ ID NO:12 (Ac-MGQLYEKE-NH2)											
						TAT: Tat penetration domain, HIV-1 TAT basic domain, YGRKKRRQRRR, SEQ ID NO:2; control peptide (Ac-YGRKKRRQRRR-NH2) [reference compound]	no or little effects	no effects on PI uptake	not altered	no effects on PI uptake	not altered	no or little effects					
showed inhibitory effects	showed inhibitory effects	lowest IC50	strongest inhibition	no effects	lowest IC50	α-helix 2 peptide derived from GBRL2 (GABARAPL2), VAQFMWIIRKR, SEQ ID NO:1 (VAQFMWIIRKR-NH2; not fully specified (N-terminus))	no or little effects	slightly increased PI positive cells	not altered	slightly increased PI positive cells	not altered	no or little effects	inhibited ATG4B cleavage activity in dose dependent manner	reduced colony formation	reduced colony formation	significantly decreased the invaded HCT116 cells	elevated cellular luciferase activity
